Source: PubChem BioAssay AID256 (DTP/NCI, 2004)
Values joined by “and” are separate entries in the source; they are usually repeats but may differ in a detail not shown here. Equal values may be shown once. Inconclusive results and toxic doses are left out. Rule for the calls: active = survival T/C of 150% or more; inactive = T/C below 125% in these data.

Test system: CD2F1 mice, L1210 leukemia ip, survival T/C
Assay: NCI In Vivo Anticancer Drug Screen. Data for tumor model L1210 Leukemia (intraperitoneal) in CD2F1 (CDF1) mice
Conditions: higher = longer survival
Procedure, shortened: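 Tumor-bearing mice (transplanted tumor) were split into treated and vehicle control groups, and the measured endpoint of each treated group was divided by that of its vehicle controls.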

[1] = endpoint: mean survival time, dose: 50.0 mg/kg/injection, schedule: Q01DX009 (ip), vehicle: saline with Tween-80
[2] = endpoint: mean survival time, dose: 100.0 mg/kg/injection, schedule: Q01DX009 (ip), vehicle: saline with Tween-80
[3] = endpoint: mean survival time, dose: 200.0 mg/kg/injection, schedule: Q01DX009 (ip), vehicle: saline with Tween-80
[4] = endpoint: mean survival time, dose: 100.0 mg/kg/injection, schedule: Q01DX001 (ip), vehicle: saline with Tween-80
[5] = endpoint: mean survival time, dose: 400.0 mg/kg/injection, schedule: Q01DX009 (ip), vehicle: saline with Tween-80
[6] = endpoint: mean survival time, dose: 100.0 mg/kg/injection, schedule: Q04DX003 (ip), vehicle: saline with Tween-80
[7] = endpoint: mean survival time, dose: 200.0 mg/kg/injection, schedule: Q04DX003 (ip), vehicle: saline with Tween-80
[8] = endpoint: mean survival time, dose: 400.0 mg/kg/injection, schedule: Q04DX003 (ip), vehicle: saline with Tween-80
[9] = endpoint: mean survival time, dose: 200.0 mg/kg/injection, schedule: Q01DX001 (ip), vehicle: saline with Tween-80
[10] = endpoint: mean survival time, dose: 400.0 mg/kg/injection, schedule: Q01DX001 (ip), vehicle: saline with Tween-80
[11] = endpoint: mean survival time, dose: 75.0 mg/kg/injection, schedule: Q01DX001 (ip), vehicle: saline
[12] = endpoint: mean survival time, dose: 150.0 mg/kg/injection, schedule: Q01DX001 (ip), vehicle: saline

Measured: T/C

O=C1OC2(c3ccccc31)c1ccccc1-c1ccccc12
inactive: [1] 97 % of control | [2] 100 % of control | [3] 100 % of control

O=C(Nc1ccc(Br)cn1)Nc1cccc(Cl)c1Cl
inactive: [1] 94 % of control | [2] 101 % of control | [3] 105 % of control

CC(=O)NC1C=C(C)C(=O)O1 (stereo not drawn)
inactive: endpoint: mean survival time, dose: 100.0 mg/kg/injection, schedule: Q04DX002 (ip), vehicle: saline 102 % of control | endpoint: mean survival time, dose: 200.0 mg/kg/injection, schedule: Q04DX002 (ip), vehicle: saline 91 % of control | endpoint: mean survival time, dose: 400.0 mg/kg/injection, schedule: Q04DX002 (ip), vehicle: saline 94 % of control

CCC1(O)C(=O)OCc2c1cc1n(c2=O)Cc2cc3ccc(CO)cc3nc2-1 (stereo not drawn)
inactive: endpoint: median survival time, dose: 4.0 mg/kg/injection, schedule: Q04DX002 (ip), vehicle: saline with Tween-80 100 % of control | endpoint: median survival time, dose: 8.0 mg/kg/injection, schedule: Q04DX002 (ip), vehicle: saline with Tween-80 113 % of control | endpoint: median survival time, dose: 16.0 mg/kg/injection, schedule: Q04DX002 (ip), vehicle: saline with Tween-80 98 % of control | endpoint: median survival time, dose: 32.0 mg/kg/injection, schedule: Q04DX002 (ip), vehicle: saline with Tween-80 108 % of control

c1ccc(OP(Oc2ccccc2)Oc2ccccc2)cc1
inactive: endpoint: mean survival time, dose: 50.0 mg/kg/injection, schedule: Q04DX003 (ip), vehicle: saline 98 % of control | endpoint: mean survival time, dose: 100.0 mg/kg/injection, schedule: Q04DX003 (ip), vehicle: saline 104 % of control | endpoint: mean survival time, dose: 200.0 mg/kg/injection, schedule: Q04DX003 (ip), vehicle: saline 96 % of control

C/C(=N\N=C(/C)c1cccs1)c1cccs1
inactive: endpoint: median survival time, dose: 25.0 mg/kg/injection, schedule: Q04DX002 (ip), vehicle: saline with Tween-80 90 % of control | endpoint: median survival time, dose: 50.0 mg/kg/injection, schedule: Q04DX002 (ip), vehicle: saline with Tween-80 90 % of control | endpoint: median survival time, dose: 100.0 mg/kg/injection, schedule: Q04DX002 (ip), vehicle: saline with Tween-80 100 % of control | endpoint: median survival time, dose: 200.0 mg/kg/injection, schedule: Q04DX002 (ip), vehicle: saline with Tween-80 90 % of control

NCS(=O)(=O)O
inactive: [4] 98 % of control

COc1cccc(CC2NCCc3c2[nH]c2ccccc32)c1 (stereo not drawn)
inactive: endpoint: mean survival time, dose: 25.0 mg/kg/injection, schedule: Q01DX001 (ip), vehicle: saline with Tween-80 98 % of control | endpoint: mean survival time, dose: 50.0 mg/kg/injection, schedule: Q01DX001 (ip), vehicle: saline with Tween-80 90 % of control | [4] 87 % of control

O=S(=O)(c1ccccc1)c1ccc(Br)cc1
inactive: [2] 94 % of control | [3] 96 % of control | [5] 98 % of control

CCOC(=O)Nc1c(C)noc1NC(C)=O
inactive: [2] 95 % of control | [6] 94 % of control | [3] 95 % of control | [7] 94 % of control | [5] 104 % of control | [8] 94 % of control

O=C1c2ccccc2C(=O)c2c(Cl)cccc21
inactive: [2] 88 % of control | [6] 93 % of control | [3] 86 % of control | [7] 93 % of control | [5] 90 % of control | [8] 91 % of control

C[Si](C)(C)OC1(C#N)C=CC(=O)C=C1
inactive: endpoint: mean survival time, dose: 1.56 mg/kg/injection, schedule: Q01DX001 (ip), vehicle: saline with Tween-80 103 % of control | endpoint: mean survival time, dose: 3.13 mg/kg/injection, schedule: Q01DX001 (ip), vehicle: saline with Tween-80 100 % of control | endpoint: mean survival time, dose: 6.25 mg/kg/injection, schedule: Q01DX001 (ip), vehicle: saline with Tween-80 92 % of control and 95 % of control

Cc1ccc(CC(F)F)cc1
inactive: [4] 101 % of control | endpoint: mean survival time, dose: 100.0 mg/kg/injection, schedule: Q04DX003 (ip), vehicle: saline sonified 98 % of control | [9] 101 % of control | endpoint: mean survival time, dose: 200.0 mg/kg/injection, schedule: Q04DX003 (ip), vehicle: saline sonified 96 % of control | [10] 103 % of control | endpoint: mean survival time, dose: 400.0 mg/kg/injection, schedule: Q04DX003 (ip), vehicle: saline sonified 96 % of control

COc1cc([C@@H]2c3cc4c(c(O)c3C[C@H]3COC(=O)[C@@H]32)OCO4)cc(OC)c1OC
inactive: endpoint: mean survival time, dose: 10.0 mg/kg/injection, schedule: Q04DX003 (ip), vehicle: saline 100 % of control | endpoint: mean survival time, dose: 20.0 mg/kg/injection, schedule: Q04DX003 (ip), vehicle: saline 108 % of control | endpoint: mean survival time, dose: 40.0 mg/kg/injection, schedule: Q04DX003 (ip), vehicle: saline 105 % of control | endpoint: mean survival time, dose: 80.0 mg/kg/injection, schedule: Q04DX003 (ip), vehicle: saline 121 % of control | endpoint: mean survival time, dose: 125.0 micrograms/kg/injection, schedule: Q01DX009 (ip), vehicle: saline 100 % of control | endpoint: mean survival time, dose: 250.0 micrograms/kg/injection, schedule: Q01DX009 (ip), vehicle: saline 108 % of control | endpoint: mean survival time, dose: 500.0 micrograms/kg/injection, schedule: Q01DX009 (ip), vehicle: saline 110 % of control | endpoint: mean survival time, dose: 2000.0 micrograms/kg/injection, schedule: Q01DX009 (ip), vehicle: saline 124 % of control | endpoint: mean survival time, dose: 4000.0 micrograms/kg/injection, schedule: Q01DX009 (ip), vehicle: saline 114 % of control

O=C(OCC(OC(=O)c1ccccc1)C1OC(c2ccccc2)OC1C(COC(=O)c1ccccc1)OC(=O)c1ccccc1)c1ccccc1 (stereo not drawn)
inactive: [6] 97 % of control | [7] 101 % of control | [8] 97 % of control

CCCCCCCCC(=O)N(C)OC
inactive: [1] 102 % of control | [2] 104 % of control

O=P1(CCBr)NCCCO1 (stereo not drawn)
inactive: endpoint: mean survival time, dose: 62.5 mg/kg/injection, schedule: Q01DX001 (ip), vehicle: water 100 % of control | endpoint: mean survival time, dose: 125.0 mg/kg/injection, schedule: Q01DX001 (ip), vehicle: water 97 % of control | endpoint: mean survival time, dose: 250.0 mg/kg/injection, schedule: Q01DX001 (ip), vehicle: water 94 % of control | endpoint: mean survival time, dose: 500.0 mg/kg/injection, schedule: Q01DX001 (ip), vehicle: water 97 % of control | endpoint: mean survival time, dose: 750.0 mg/kg/injection, schedule: Q01DX001 (ip), vehicle: water 102 % of control

CC(=O)Nc1cccc(C)n1
inactive: [11] 98 % of control | [12] 98 % of control

c1ccc(C2=C(c3ccccc3)OCCO2)cc1
inactive: [4] 110 % of control | [9] 89 % of control | [10] 92 % of control

Nc1nc(=O)n(CCCOc2ccc([N+](=O)[O-])c(Cl)c2)cc1-c1ccc(Cl)c(Cl)c1
inactive: [9] 90 % of control

CCCCOC(=O)CC(O)C(=O)OCCCC (stereo not drawn)
inactive: [1] 113 % of control | [2] 107 % of control | [3] 103 % of control

O=C(N/N=C/c1ccccc1O)c1ccccc1
inactive: endpoint: mean survival time, dose: 100.0 mg/kg/injection, schedule: Q01DX001 (ip), vehicle: Klucel (hydroxypropylcellulose) (HPC) 112 % of control | endpoint: mean survival time, dose: 100.0 mg/kg/injection, schedule: Q01DX009 (ip), vehicle: Klucel (hydroxypropylcellulose) (HPC) 94 % of control | endpoint: mean survival time, dose: 200.0 mg/kg/injection, schedule: Q01DX001 (ip), vehicle: Klucel (hydroxypropylcellulose) (HPC) 105 % of control | endpoint: mean survival time, dose: 200.0 mg/kg/injection, schedule: Q01DX009 (ip), vehicle: Klucel (hydroxypropylcellulose) (HPC) 104 % of control | endpoint: mean survival time, dose: 400.0 mg/kg/injection, schedule: Q01DX001 (ip), vehicle: Klucel (hydroxypropylcellulose) (HPC) 95 % of control | endpoint: mean survival time, dose: 400.0 mg/kg/injection, schedule: Q01DX009 (ip), vehicle: Klucel (hydroxypropylcellulose) (HPC) 102 % of control

NCCN1CCc2ccccc2C1
inactive: endpoint: mean survival time, dose: 6.25 mg/kg/injection, schedule: Q04DX003 (ip), vehicle: saline 101 % of control | endpoint: mean survival time, dose: 12.5 mg/kg/injection, schedule: Q04DX003 (ip), vehicle: saline 106 % of control | endpoint: mean survival time, dose: 25.0 mg/kg/injection, schedule: Q04DX003 (ip), vehicle: saline 101 % of control

CCCC1CC[N-]CC1.CCCC1CC[N-]CC1.[Br][Pt+2]([Br])([Br])[Br]
inactive: endpoint: mean survival time, dose: 6.25 mg/kg/injection, schedule: Q01DX009 (ip), vehicle: water 94 % of control | endpoint: mean survival time, dose: 12.5 mg/kg/injection, schedule: Q01DX009 (ip), vehicle: water 96 % of control | endpoint: mean survival time, dose: 25.0 mg/kg/injection, schedule: Q01DX009 (ip), vehicle: water 97 % of control | endpoint: mean survival time, dose: 50.0 mg/kg/injection, schedule: Q01DX009 (ip), vehicle: water 91 % of control | endpoint: mean survival time, dose: 100.0 mg/kg/injection, schedule: Q04DX003 (ip), vehicle: water 90 % of control

C=CCN(CC=C)C(=O)Nc1ccc(C)c(C)c1
inactive: [1] 96 % of control | [2] 92 % of control | [3] 96 % of control

COC/C=N/N(C)C
inactive: [11] 100 % of control | [12] 96 % of control

CCCCCCCCCCCCCCCCOc1ccc(S(=O)(=O)NC(C)(C)C)cc1N
inactive: [6] 96 % of control | [7] 93 % of control | [8] 95 % of control
